Test results: US12599642B2, “Compositions derived from Salvia hispanica seeds” (Signum Biosciences, priority 2020, dated 2026)
Marks after values point to notes of the source that are not given here.

Tests used:
PME-1 = target: T1, PME-1 (Homo sapiens, UniProt Q9Y570); assay: PP2A demethylation by PME-1, radioactive filter binding assay; type: biochemical
T1 construct: made in house
T1 sequence (Q9Y570 1-386): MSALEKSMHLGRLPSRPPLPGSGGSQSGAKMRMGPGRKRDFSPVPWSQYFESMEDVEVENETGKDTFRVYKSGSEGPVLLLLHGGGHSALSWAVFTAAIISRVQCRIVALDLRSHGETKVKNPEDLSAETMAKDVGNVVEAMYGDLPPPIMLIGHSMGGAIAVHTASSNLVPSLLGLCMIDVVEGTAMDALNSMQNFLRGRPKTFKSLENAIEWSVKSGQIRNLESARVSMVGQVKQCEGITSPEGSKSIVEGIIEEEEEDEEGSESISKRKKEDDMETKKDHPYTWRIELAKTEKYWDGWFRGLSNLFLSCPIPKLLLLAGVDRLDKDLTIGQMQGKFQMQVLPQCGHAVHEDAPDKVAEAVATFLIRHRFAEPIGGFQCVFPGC
Method: Compositions were created using the extraction methods as generally described in Example 1. These compositions were assayed for their ability to preserve the methylation status of PP2A AC dimer in the presence of protein phosphatase methylesterase-1 (PME-1), using a radioactive filter binding assay.
PP2A-AC dimer was prepared as previously described in Tolstykh T, Lee J, Vafai S, Stock J B. Carboxyl methylation regulates phosphoprotein phosphatase 2A by controlling the association of regulatory B subunits. EMBO J. 2000; 19(20:5682-5691. Additional purification was performed with a HiPrep™ 16/60 Sephacryl® S100 HR in a buffer composed of 50 mM MOPS pH 7.2, 1.0 mM EDTA, 1.0 mM dithiothreitol (DTT), and 0.50 μg/ml each of aprotinin, leupeptin and pepstatin. Leucine carboxyl methytransferase-1 (LCMT-1) and Protein phosphatase methylesterase-1 (PME-1) were prepared using the methods as previously described Xing Y, Li Z, Chen Y, Stock J B, Jeffrey P D, Shi Y. Structural mechanism of demethylation and inactivation of protein phosphatase 2A. Cell. 2008; 133(I):154-163.
[3H]-labeled methylated PP2A AC dirtier was prepared by incubating PP2A, LCMT1 and [3H]-SAM (PerkinElmer; Waltham, Mass.) in 50 mM MOPS-Na (pH 7.2), 5 mM MgCl2, and 1 mM DTT at room temperature for 1 hour. Demethylation of PP2A by PME-1 was measured using the radioactive filter binding assay format. 20 nM PME-1 was incubated for 15 minutes with extract or compound, then 20 nM of [3H]-labeled methylated PP2A AC dimer was added. Reactions were run at room temperature for 30 minutes and then applied to a 96-well filter plate (Millipore Co.) containing 30% TCA where proteins were precipitated and separated from the excess of [3H]-SAM by washing with 70% ethanol. [3H]-incorporation was measured using TopCount NXT scintillation counter (PerkinEimer; Waltham, MA). IC50 values were generated from dose-response curves using a four-parameter logistic curve fit using SigmaPlot software (Systat Software, San Jose, CA).

[1] = system: Staphylococcus aureus (ATCC® 29213™); assay: Minimum inhibitory concentration, growth of S. aureus; type: cell-based; settings: for MIC Staphylococcus aureus (ATCC ® 29213 ™): 90% inhibition of growth, aerobic, 24 hours, Table 6; for MIC Staphylococcus aureus (ATCC ® 29213): Table 14
Method: (§1) The inhibition of growth of Cutibacterium acnes and Staphylococcus aureus bacteria was measured according to the methods described in Nakatsuji et al., J Invest Dermatol, 2009, 129: 2480-2488; Traub and Leonhard, Chemotherapy, 1994; 40(6):374-383. In summary, the strain ATCC® 6919™ of C. acnes (American Type Culture Collection, Manassas, VA) was cultured on Reinforced Clostridium agar (BD 218081), under anaerobic conditions using Gas-Pak (B D, Sparks, MD) at 37° C. ATCC® 29213™ strain of S. aureus was cultured on tryptic soy agar (BD 211825), under aerobic conditions at 37° C. A single colony was inoculated in broth medium and cultured at 37° C. In addition to various positive controls, both the Final Product and the First Stage Product of the extraction process described in Example 1 were tested as described below. Test material was dissolved in 100% (v/v) DMSO. Doxycycline was dissolved in 100% (v/v) water. Samples of each test material and a solution of doxycycline were then each incubated with an inoculum of bacteria at a concentration of 1×10^6 CFU per mL, in broth medium in a 96-well microplate (0.1 mL per well) under aerobic conditions for 24 hours (S. aureus) or anaerobic conditions for 72 hours (C. acnes). Samples of each material were tested at final concentrations per well up to 4 mg/mL. A control well received only 5% (v/v) of DMSO or water. After 24-72 hours incubation, the bacteria cultures in the 96-well microplate were mixed well and then absorbance readings at 600 nm were taken to determine bacterial growth.

[2] = system: Cutibacterium acnes (ATCC® 6919™); assay: Minimum inhibitory concentration, growth of C. acnes; type: cell-based; settings: for MIC Cutibacterium acnes (ATCC ® 6919 ™): 90% inhibition of growth, anaerobic, 72 hours, Table 6; for MIC Cutibacterium acnes (ATCC ® 6919): Table 14
Method: as §1

[3] = system: human pre-adipocyte cells; assay: Lipolysis assay, glycerol release; type: cell-based; settings: 100 μM, 8 hours
Description: Lipolysis is the process in which triglycerides (TG) are hydrolyzed into glycerol and free fatty acids. This process releases free fatty acids (FFA) into the bloodstream where they may be either re-esterified by the adipocyte or travel to other tissues and exert other effects throughout the body. The purpose of this study was to evaluate the lipolysis via measure of the glycerol molecule released in lipolysis process. Here, we evaluated the potential capacity of the chia seed extract composition of Example 1 in cultured human pre-adipocyte cells. Cells were seeded in medium and incubated for 7 days. Neat solutions of the enriched free acid chia seed extract composition of Example 1 were prepared formulated in methanol. Cells were pre-treated for 8 hours with or without test material in media.
A Lipolysis Assay Kit (Cat. No. Lip-1) was obtained from Zen-Bio, Inc. (Research Triangle, NC) and used to determine glycerol levels (μM) based on the methodology described below. Glycerol released to the medium is phosphorylated by […] (ATP) forming glycerol-1-phosphate (G-1-P) and adenosine-5′-diphosphate (ADP) in the reaction catalyzed by glycerol kinase. G-1-P is then oxidized by glycerol phosphate oxidase to dihydroxyacetone phosphate (DAP) and hydrogen peroxide. […] The increase in absorbance at 540 nm is directly proportional to glycerol concentration of the sample. […]

[4] = Clinical trial, skin moisturization by Corneometer; type: in vivo, human; settings: lower leg
Method: A single-blind, single-center clinical trial was conducted with 6 healthy volunteers of either sex to evaluate the moisturization efficacy of a moisturizing cream (formulated as shown below in Table 8) containing the composition prepared using the process of Example 9, vehicle (i.e., the formulation of Table 8 minus the active ingredient-i.e., the chia seed composition), a negative control (untreated), and two positive controls (petroleum jelly and glycerin). The objective of this study was to evaluate the moisturization efficacy (as measured by Corneometer®) and to evaluate the relative degree of improvement to skin barrier functionality of two test articles as measured by Trans Epidermal Water Loss (TEWL) assessments when tested in 16 healthy subjects. See, e.g., Johan du […] et al., International Guidelines for The In Vivo Assessment Of Skin Properties In Noel-Clinical Settings: Part 2. Transepidermal Water Loss and Skin Hydration, Skin Res. Technol. 19(3), 265-278 (2013); C. W. Blichmann and J. Serup, Assessment of Skin Moisture. Measurement of Electrical Conductance: Capacitance and Transepidermal Water Loss, Acta Derm. Venereol. 68(4): 284-290 (1988). On day -3 of the study, subjects were given a bland soap product (e.g., Simple® Soap) to use on their lower legs for the three days prior to the active phase. They were instructed not to use any other treatment products on their lower legs for the next 3 days (the “Washout Phase”). These products included moisturizing foam baths, shower gels or soaps, lotions and creams, and depilatory products. As part of the pre-treatment assessment, subjects sat resting for a period of at least 30 minutes in a controlled environment at a temperature of 22° C.±2° C. and at a relative humidity of 45%±5%. Following the rest period, their lower legs were marked with a total of four 5 cm×5 cm squares. Moisturization measurements to study the humectant properties of the test articles were performed using the Corneometer® CM825 (Courage and Khazaka, Germany). This instrument relies on the dielectric constant, a physical property of water, which is relatively high and as such will affect the capacitance of a capacitor. Any change in the dielectric constant due to skin moisture variations would alter the capacitance of the precision capacitor in the instrument. These variations were detected electronically and converted into a value by the Corneometer®. A 15-minute warm-up period was allowed before using the Corneometer®. Following assessments of skin hydration by a Corneometer®, a single application of the test articles (i.e., the chia seed formulation and vehicle alone) was made to the lower leg. Further Corneometer® assessments were then performed at 2, 8, and 24-hours following test article application. […]

Row | MIC Staphylococcus aureus (ATCC ® 29213 ™) [1] [μg\mL] | MIC Staphylococcus aureus (ATCC ® 29213) [1] [μg\mL] | MIC Cutibacterium acnes (ATCC ® 6919 ™) [2] [μg\mL] | MIC Cutibacterium acnes (ATCC ® 6919) [2] [μg\mL] | SMILES | further results
1 | – | – | – | – | CC/C=C\C/C=C\C/C=C\CCCCCCCC(=O)O [ALA, cis,cis,cis-9,12,15-octacedatriencoic acid] | [ALA] necessary to obtain 50% PP2A inhibition (PME-1; [LA]=0 μg/mL): > 8 µg/mL; [ALA] necessary to obtain 50% PP2A inhibition (PME-1; [LA]=0.5 μg/mL): > 4 µg/mL
2 | 500 | 500 | 500 | 500 | O=C(OOC(=O)c1ccccc1)c1ccccc1 [Benzoyl peroxide] | –
3 | 0.2 | 0.2 | 0.6 | 0.6 | C[C@H]1c2cccc(O)c2C(=O)C2=C(O)[C@]3(O)C(=O)C(C(N)=O)=C(O)[C@@H](N(C)C)[C@@H]3[C@@H](O)[C@@H]21 [Doxycycline] | –
4 | – | – | – | – | CC(C)Cn1c(=O)n(C)c(=O)c2[nH]cnc21 [IBMX, 3-isobutyl-1-methylxanthine] | Glycerol Levels, Avg [3]: 8.8* (p < 0.01 μM; Glycerol Levels, Fold Improvement [3]: 6.4
5 | – | – | – | – | CCCCC/C=C\C/C=C\CCCCCCCC(=O)O [LA, cis,cis-9,12-octadecadienoic acid] | [LA] at which 50% PP2A inhibition is achieved (PME-1; regardless of [ALA]): ≥ 1 µg/mL
6 | – | – | – | – | OCC(O)CO [Positive Control (glycerine), glycerine] | Mean Corneometer ® Values ([4]; 0 hours (before application)): 22.7; Mean Corneometer ® Values ([4]; 2 hours after single application): 127.1; Mean Corneometer ® Values ([4]; 8 hours after single application): 106.8; Mean Corneometer ® Values ([4]; 24 hours after single application): 82.3
7 | 2000 | 2000 | 1000 | 500 | O=C(O)c1ccccc1O [Salicylic Acid] | –
